The values below are quoted from earlier work in US12686008B2, “Microfluidic device having specifically designed detection chambers” (Bifrost Biosystems Inc., priority 2020, dated 2026).

Where no end group is shown, it is not given here.

For this data set the following is noted: literature values, refs [18, 19]; test organism not given.

On to LL-37, for which the minimal inhibitory concentration (MIC) – broadly, the smallest concentration in the dilution series that meets the test's criterion for growth inhibition – is 1.5 µM.
Regarding VDKPPYLPRPRPPRRIYNR-NH2 [Oncocin], the MIC was 0.42 µM.
